Results as given in patent publication US4346087A, “Antibacterial surface active agent containing azaalkenelactam” (priority 1979, dated 1982).
In brackets after ≈: the same amount, converted by molar mass. Read-outs that look alike come from different tables or passages of the source.

Experiments:
Type in all cases: cell-based
[1] = tested on: Desulfovibrio desulfuricans IFO 13699; assay: MIC against Desulfovibrio desulfuricans
Excerpt: (§1) Below are described the antibacterial activities of the compounds in the compositions according to this invention.
(§2) The testing method complied with the standard method of Japan Sociaty of Chemotherapy.

[2] = tested on: Escherichia coli NIHJ; assay: MIC against Escherichia coli NIHJ
Excerpt: as §1, §2

[3] = tested on: Staphylococcus aureus FDA 209P; assay: MIC against Staphylococcus aureus FDA 209P
Excerpt: as §1, §2

[4] = Desulfovibrio desulfuricans, IFO13699, 24 h
[5] = Staphylococcus aureus, FDA209P, 24 h
[6] = Escherichia coli, Table 1, azaalkenelactams, heart infusion agar, 37° C., 24 hours, read-out: MIC
[7] = Staphylococcus aureus, FDA209P, Table 1, azaalkenelactams, heart infusion agar, 37° C., 24 hours, read-out: MIC
[8] = Escherichia coli, Table 2, derivatives having a carboxylate radical, heart infusion agar, 37° C., 24 hours, read-out: MIC

Molecule | MIC [1, 4] [µg/mL] | MIC ([2]; Escherichia coli, 24 h) [µg/mL] | MIC [3, 5] [µg/mL] | further results
CCCCCCCCCCCCN1CCN=CC(C)C1=O (stereo not drawn) [Example 42, 4-dodecyl-6-methyl-3,6-dihydro-2H-1,4-diazepin-5-one] | 6.25 (≈ 21.2 µM) | 400 (≈ 1360 µM) | 12.5 (≈ 42.4 µM) | –
CCCCCCCCCCCCN1CCN=C(C)CC1=O [Example 1, 4-dodecyl-7-methyl-3,6-dihydro-2H-1,4-diazepin-5-one] | 6.25 (≈ 21.2 µM) | – | – | MIC [2, 6]: 1600 µg/mL (≈ 5430 µM); MIC [3, 7]: 50 µg/mL (≈ 170 µM)
1-octadecylaminopropyl-4-methyl-1-aza-5-azoniacyclooct-4-en-2-one-5-propionate | – | – | – | MIC [1]: 6.25 µg/mL; MIC [2]: 100 µg/mL; MIC [3]: 6.25 µg/mL
CCCCCCC(O)CC=CCCCCCCCC(=O)OC(C)CN1CCCN=C(C)CC1=O (stereo not drawn) [Example 21] | 25 (≈ 52.2 µM) | – | 50 (≈ 104 µM) | MIC [2, 6]: 800 µg/mL (≈ 1670 µM)
CCCCCCCC(=O)NCCN1CCN=CCCC1=O [Example 56, 4-octamidoethyl-2,3,6,7-tetrahydro-1,4-diazocin-5-one] | 50 (≈ 169 µM) | 100 (≈ 338 µM) | 200 (≈ 677 µM) | –
1-(2-hydroxyhexadecyl)aminoethyl-3-methyl-1-aza-5-azoniacyclooct-4-en-2-one-5-acetate | – | – | – | MIC [1]: 6.25 µg/mL; MIC [2]: 100 µg/mL; MIC [3]: 12.5 µg/mL
CCCCCCCCCc1ccc(OCC(O)CNCCNCCNCCN2CCN=CCC(C)C2=O)cc1 (stereo not drawn) [Example 69, 4-nonylphenoxy(2-hydroxy)propylaminoethylaminoethylaminoethyl-6-methyl-2,3,6,7-tetrahydro-1,4-diazocin-5-one] | 50 (≈ 91.6 µM) | 200 (≈ 366 µM) | 200 (≈ 366 µM) | –
CCCCCCCCCCCCCCCCN1CC[N+](CC(=O)[O-])=C(C)CC1=O [4-hexadecyl-7-methyl-1-azonia-4-azacyclohept-7-en-5-one-1-acetate] | 12.5 (≈ 30.6 µM) | – | 100 (≈ 245 µM) | MIC [2, 8]: 3200 µg/mL (≈ 7830 µM)
CCCCCCCCCCCCNCCN1CC[N+](CC(=O)[O-])=C(C)CC1=O [4-dodecylaminoethyl-7-methyl-1-azonia-4-azacyclohept-7-en-5-one-1-acetate] | 12.5 (≈ 31.6 µM) | 100 (≈ 253 µM) | 50 (≈ 126 µM) | –
CCCCCCCCCc1ccc(OCCOCCN2CCCN=CC(C)(C)C2=O)cc1 [Example 62, 1-nonylphenylpoly(2 moles)oxyethyleneoxyethyl-3,3-dimethyl-6,7,8-trihydro-1,5-diazocin-5-one] | 50 (≈ 112 µM) | 200 (≈ 450 µM) | 100 (≈ 225 µM) | –
CCCCCCCC(=O)OCCN1CCN=C(C)CC1=O [Example 24, 4-octoyloxyethyl-7-methyl-3,6-dihydro-2H-1,4-diazepin-5-one] | 25 (≈ 84.3 µM) | – | 200 (≈ 675 µM) | MIC [2, 6]: 800 µg/mL (≈ 2700 µM)
CCCCCCCCCCCC(=O)OCCN1CC[N+](CC(=O)[O-])=C(C)CC1=O [4-lauroyloxyethyl-7-methyl-1-azonia-4-azacyclohept-7-en-5-one-1-acetate] | 25 (≈ 60.9 µM) | – | 400 (≈ 974 µM) | MIC [2, 8]: 3200 µg/mL (≈ 7790 µM)
CC1=[N+](CC(=O)[O-])CCN(CC(C)OCC(C)OCC(C)OCc2ccc(C)cc2)C(=O)C1 (stereo not drawn) [4-methylbenzylpoly(2 moles)oxypropyleneoxypropyl-7-methyl-1-azonia-4-azacyclohept-7-en-5-one-1-acetate] | 50 (≈ 108 µM) | 400 (≈ 865 µM) | 50 (≈ 108 µM) | –
CCCCCCCC/C=C\CCCCCCCCNCCCNC(=O)CCCCCCC/C=C\CCCCCCCC [Oleylaminopropyl oleamide, oleylaminopropyloleamide, reference compound] | 100 (≈ 170 µM) | – | – | MIC [2, 6]: ≥ 10000 µg/mL; MIC [3, 7]: ≥ 10000 µg/mL
CCCCCCCC(=O)OCCN1CC[N+](CC(=O)[O-])=C(C)CC1=O [4-octoyloxyethyl-7-methyl-1-azonia-4-azacyclohept-7-en-5-one-1-acetate] | 50 (≈ 141 µM) | – | – | MIC [2, 8]: 3200 µg/mL (≈ 9030 µM); MIC ([3]; Staphylococcus aureus, FDA209P, Table 2, derivatives having a carboxylate radical, heart infusion agar, 37° C., 24 hours, read-out: MIC): 800 µg/mL (≈ 2260 µM)
CCCCCCCCCc1ccc(OCCOCCN2CCC[N+](CC(=O)[O-])=C(C)CC2=O)cc1 [1-nonylphenylpoly(2 moles)oxyethyleneoxyethyl-4-methyl-1-aza-5-azoniacyclooct-4-en-2-one-5-acetate] | 25 (≈ 51.2 µM) | 200 (≈ 409 µM) | 12.5 (≈ 25.6 µM) | –
CCCCCCCCCCCCCCCCCCCCC(O)CNCCNCCN1CCC[N+](CC(=O)[O-])=C(C)CC1=O (stereo not drawn) [1-(2-hydroxy)docosylaminoethylaminoethyl-4-methyl-1-aza-5-azoniacyclooct-4-en-2-one-5-acetate] | 6.25 (≈ 10.3 µM) | 50 (≈ 82.1 µM) | 25 (≈ 41.1 µM) | –
CCCCCCC(O)CC=CCCCCCCCC(=O)OC(C)CN1CCC[N+](CC(=O)[O-])=C(C)CC1=O (stereo not drawn) | 25 (≈ 46.6 µM) | – | 50 (≈ 93.2 µM) | MIC [2, 8]: 1600 µg/mL (≈ 2980 µM)
